# Measured values as given in patent US11192890B2, “FGFR kinase inhibitors and pharmaceutical uses” (AUCKLAND UNISERVICES LIMITED, priority 2017, dated 2021).
# Like-named read-outs stand apart in the source and are kept apart here.
# Legend:
# FGFR1 = molecular target: T1, FGFR1 (Homo sapiens, UniProt P11362); assay: Isolated enzyme FRET-based Z-Lyte kinase inhibition assay; assay type: biochemical; conditions: means from 3 independent experiments; read-out: Isolate Enzyme Inhibition IC50, FGFR1
# T1 construct: purchased Invitrogen
# T1 sequence (P11362 22-822): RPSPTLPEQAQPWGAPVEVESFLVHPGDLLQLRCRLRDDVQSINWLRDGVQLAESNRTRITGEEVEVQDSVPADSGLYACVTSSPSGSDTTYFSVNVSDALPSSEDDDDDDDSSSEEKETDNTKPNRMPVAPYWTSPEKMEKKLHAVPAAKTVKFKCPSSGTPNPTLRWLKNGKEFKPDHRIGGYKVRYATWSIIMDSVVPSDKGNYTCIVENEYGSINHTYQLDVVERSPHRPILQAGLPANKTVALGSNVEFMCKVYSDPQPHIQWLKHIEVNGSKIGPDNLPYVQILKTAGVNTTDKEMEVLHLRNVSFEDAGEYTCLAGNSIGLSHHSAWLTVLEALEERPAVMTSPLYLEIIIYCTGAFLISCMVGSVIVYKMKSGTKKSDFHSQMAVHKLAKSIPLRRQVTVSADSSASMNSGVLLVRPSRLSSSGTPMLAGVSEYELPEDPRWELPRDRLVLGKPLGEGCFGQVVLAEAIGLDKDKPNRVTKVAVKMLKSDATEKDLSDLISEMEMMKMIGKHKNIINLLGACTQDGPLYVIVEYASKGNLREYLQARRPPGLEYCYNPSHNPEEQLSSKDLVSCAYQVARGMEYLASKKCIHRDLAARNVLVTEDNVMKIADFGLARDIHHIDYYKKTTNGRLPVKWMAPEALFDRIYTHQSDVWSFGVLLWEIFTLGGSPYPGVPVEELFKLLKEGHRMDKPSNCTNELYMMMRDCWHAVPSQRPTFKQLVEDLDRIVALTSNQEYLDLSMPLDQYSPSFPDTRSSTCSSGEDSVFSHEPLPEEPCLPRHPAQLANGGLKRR
# Method: (§1) FGFR1-4 and the Z-Lyte Kinase Assay Kit were purchased from Invitrogen. The concentration gradients from 5.1×10^−11 to 1.0×10^−6 mol/L were used for all the test compounds. The experiments were performed according to the instructions of the manufacturer.
# (§2) FGFR1-4 isolated enzyme activity was determined using the FRET-based Z-Lyte kinase inhibition assay. The data are the means from 3 independent experiments.
# FGFR3 = molecular target: T2, FGFR3 (Homo sapiens, UniProt P22607); assay: as above; assay type: biochemical; conditions: means from 3 independent experiments; read-out: Isolate Enzyme Inhibition IC50, FGFR3
# T2 construct: purchased Invitrogen
# T2 sequence (P22607 23-806): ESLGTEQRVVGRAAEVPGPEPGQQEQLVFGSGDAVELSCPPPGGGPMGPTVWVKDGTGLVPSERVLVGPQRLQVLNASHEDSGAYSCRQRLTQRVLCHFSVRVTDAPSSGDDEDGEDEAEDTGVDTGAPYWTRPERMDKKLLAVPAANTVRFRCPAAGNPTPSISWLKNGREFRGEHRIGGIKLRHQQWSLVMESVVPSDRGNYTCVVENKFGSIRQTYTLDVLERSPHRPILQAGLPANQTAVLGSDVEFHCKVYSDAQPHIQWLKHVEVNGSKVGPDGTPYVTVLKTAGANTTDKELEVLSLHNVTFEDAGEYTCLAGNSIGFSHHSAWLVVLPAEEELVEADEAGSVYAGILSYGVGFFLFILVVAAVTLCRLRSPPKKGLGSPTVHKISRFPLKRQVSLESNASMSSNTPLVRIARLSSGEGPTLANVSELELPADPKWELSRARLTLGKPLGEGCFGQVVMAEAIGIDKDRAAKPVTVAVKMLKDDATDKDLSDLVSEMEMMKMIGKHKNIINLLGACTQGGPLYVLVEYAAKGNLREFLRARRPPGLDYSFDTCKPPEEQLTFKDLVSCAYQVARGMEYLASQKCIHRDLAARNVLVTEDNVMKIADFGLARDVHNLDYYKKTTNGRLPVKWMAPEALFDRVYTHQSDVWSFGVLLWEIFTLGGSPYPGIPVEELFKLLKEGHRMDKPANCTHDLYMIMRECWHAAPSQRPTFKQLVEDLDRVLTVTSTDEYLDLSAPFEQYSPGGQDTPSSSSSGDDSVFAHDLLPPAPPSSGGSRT
# Method: as §1, §2
# FGFR2 = molecular target: T3, FGFR2 (Homo sapiens, UniProt P21802); assay: as above; assay type: biochemical; conditions: means from 3 independent experiments; read-out: Isolate Enzyme Inhibition IC50, FGFR2
# T3 construct: purchased Invitrogen
# T3 sequence (P21802 22-821): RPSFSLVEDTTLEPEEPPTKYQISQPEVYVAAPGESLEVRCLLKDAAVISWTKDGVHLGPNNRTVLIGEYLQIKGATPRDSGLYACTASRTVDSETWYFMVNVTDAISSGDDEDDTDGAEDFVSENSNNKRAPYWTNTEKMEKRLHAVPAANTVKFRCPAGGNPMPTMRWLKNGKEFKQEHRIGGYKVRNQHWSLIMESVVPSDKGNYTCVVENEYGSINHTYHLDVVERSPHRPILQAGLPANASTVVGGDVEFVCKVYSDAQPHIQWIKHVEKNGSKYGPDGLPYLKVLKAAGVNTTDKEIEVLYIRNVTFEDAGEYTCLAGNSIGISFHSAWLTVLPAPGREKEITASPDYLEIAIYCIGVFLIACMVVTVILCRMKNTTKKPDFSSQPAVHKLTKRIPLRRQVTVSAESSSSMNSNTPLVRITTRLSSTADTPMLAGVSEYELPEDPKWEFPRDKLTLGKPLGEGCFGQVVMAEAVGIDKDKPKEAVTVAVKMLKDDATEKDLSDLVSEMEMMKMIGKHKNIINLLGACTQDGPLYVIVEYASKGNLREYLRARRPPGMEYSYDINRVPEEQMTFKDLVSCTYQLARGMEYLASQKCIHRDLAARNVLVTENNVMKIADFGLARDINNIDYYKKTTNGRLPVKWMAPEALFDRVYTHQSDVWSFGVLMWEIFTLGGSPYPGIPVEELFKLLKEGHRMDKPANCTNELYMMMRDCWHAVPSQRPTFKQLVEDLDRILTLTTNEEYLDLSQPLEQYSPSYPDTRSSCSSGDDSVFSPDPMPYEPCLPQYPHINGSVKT
# Method: as §1, §2
# [1] = system: FGFR1 in H520 cells (phospho-ERK1/2); assay: Drug washout Western blot assay, H520 cells; assay type: cell-based; conditions: H520; 30 min exposure, 100 nM, with and without washout
# SUM52 cells = assay: Oxic and anoxic anti-proliferative activity of the prodrugs; conditions: for Hypoxic Cytotoxicity Ratio (HCR), SUM52: ratio of oxic and anoxic IC50
# [2] = system: FGFR3 in SW780 cells (phospho-ERK1/2); assay: Drug washout Western blot assay, SW780 cells; assay type: cell-based; conditions: SW780; 30 min exposure, 100 nM, with and without washout
# [3] = read-out: Cellular Anti-proliferative IC50, SUM52, Anoxic, 4 hours of anoxia, remainder of assay oxic
# [4] = read-out: Cellular Anti-proliferative IC50, SUM52, Oxic, oxic conditions
SMILES,IC50 (FGFR1) [nM],IC50 (FGFR3) [nM],IC50 (FGFR2) [nM],reversible or irreversible inhibition of FGFR1 in cells [1],"Hypoxic Cytotoxicity Ratio (HCR), SUM52 (SUM52 cells)",IC50 (SUM52 cells; [3]) [nM],IC50 (SUM52 cells; [4]) [nM],reversible or irreversible inhibition of FGFR3 in cells [2]
"COc1cc(OC)c(Cl)c(-c2cc3cnc(Nc4ccccc4)nc3n(C3CCN(C(=O)/C=C/CN(C)C)CC3)c2=O)c1Cl [Compound 138, (E)-6-(2,6-dichloro-3,5-dimethoxyphenyl)-8-(1-(4-(dimethylamino)but-2-enoyl)piperidin-4-yl)-2-(phenylamino)pyrido[2,3-d]pyrimidin-7(8H)-one]",1.1,5.1,1.1,potent irreversible inhibitors,,,,
"CNc1ncc2c(n1)N(Cc1cccc(NC(=O)/C=C/CN(C)C)c1)C(=O)N(c1c(Cl)c(OC)cc(OC)c1Cl)C2 [Compound 127, (E)-N-(3-((3-(2,6-dichloro-3,5-dimethoxyphenyl)-7-(methylamino)-2-oxo-3,4-dihydropyrimido[4,5-d]pyrimidin-1(2H)-yl)methyl)phenyl)-4-(dimethylamino)but-2-enamide]",1,35,2.7,,,,,
"CNc1ncc2cc(-c3c(Cl)c(OC)cc(OC)c3Cl)c(=O)n(C3CCN(C(=O)/C=C/CN(C)C)CC3)c2n1 [Compound 132, (E)-6-(2,6-dichloro-3,5-dimethoxyphenyl)-8-(1-(4-(dimethylamino)but-2-enoyl)piperidin-4-yl)-2-(methylamino)pyrido[2,3-d]pyrimidin-7(8H)-one]",0.7,4.9,1,,,,,
"CNc1ncc2c(n1)N(C1CCN(C(=O)/C=C/CN3CCCCC3)CC1)C(=O)N(c1c(Cl)c(OC)cc(OC)c1Cl)C2 [Compound 124, (E)-3-(2,6-dichloro-3,5-dimethoxyphenyl)-7-(methylamino)-1-(1-(4-(piperidin-1-yl)but-2-enoyl)piperidin-4-yl)-3,4-dihydropyrimido[4,5-d]pyrimidin-2(1H)-one]",0.8,12,1.9,,,,,
"CNc1ncc2cc(-c3c(Cl)c(OC)cc(OC)c3Cl)c(=O)n(C(C)c3cccc(NC(=O)/C=C/CN(C)C)c3)c2n1 (centres unmarked) [Compound 146, (E)-N-(3-(1-(6-(2,6-dichloro-3,5-dimethoxyphenyl)-2-(methylamino)-7-oxopyrido[2,3-d]pyrimidin-8(7H)-yl)ethyl)phenyl)-4-(dimethylamino)but-2-enamide]",1.2,6.2,1.2,,,,,
"COc1cc(OC)c(Br)c(-c2cc3cnc(NC(C)C)nc3n(C3CCN(C(=O)/C=C/C[N+](C)(C)Cc4c([N+](=O)[O-])ncn4C)CC3)c2=O)c1Br.[Br-] [Compound 210, (E)-4-(4-(6-(2,6-dibromo-3,5-dimethoxyphenyl)-2-(isopropylamino)-7-oxopyrido[2,3-d]pyrimidin-8(7H)-yl)piperidin-1-yl)-N,N-dimethyl-N-((1-methyl-4-nitro-1H-imidazol-5-yl)methyl)-4-oxobut-2-en-1-aminium bromide]",,,,,9,4,35,
"COc1cc(OC)c(Cl)c(-c2cc3cnc(NC4CCCCC4)nc3n(C3CCN(C(=O)/C=C/CN(C)C)CC3)c2=O)c1Cl [Compound 136, (E)-2-(cyclohexylamino)-6-(2,6-dichloro-3,5-dimethoxyphenyl)-8-(1-(4-(dimethylamino)but-2-enoyl)piperidin-4-yl)pyrido[2,3-d]pyrimidin-7(8H)-one]",1.1,6.7,1.3,,,,,
"COc1cc(OC)c(Cl)c(-c2cc3cnc(NC(C)C)nc3n(Cc3cccc(NC(=O)/C=C/CN(C)C)c3)c2=O)c1Cl [Compound 145, (E)-N-(3-((6-(2,6-dichloro-3,5-dimethoxyphenyl)-2-(isopropylamino)-7-oxopyrido[2,3-d]pyrimidin-8(7H)-yl)methyl)phenyl)-4-(dimethylamino)but-2-enamide]",1.3,6.9,2.5,,,,,
"COc1cc(OC)c(Cl)c(-c2cc3cnc(NC4CCOC4)nc3n(C3CCN(C(=O)/C=C/CN(C)C)CC3)c2=O)c1Cl (centres unmarked) [Compound 134, (E)-6-(2,6-dichloro-3,5-dimethoxyphenyl)-8-(1-(4-(dimethylamino)but-2-enoyl)piperidin-4-yl)-2-((tetrahydrofuran-3-yl)amino)pyrido[2,3-d]pyrimidin-7(8H)-one]",1.1,11,1.6,,,,,
"C=CC(=O)N1CCC(N2C(=O)N(c3c(Cl)c(OC)cc(OC)c3Cl)Cc3cnc(NC)nc32)CC1 [Compound 156, 1-(1-acryloylpiperidin-4-yl)-3-(2,6-dichloro-3,5-dimethoxyphenyl)-7-(methylamino)-3,4-dihydropyrimido[4,5-d]pyrimidin-2(1H)-one]",,,,,,,,potent reversible inhibitors
"CNc1ncc2cc(-c3c(Cl)c(OC)cc(OC)c3Cl)c(=O)n(Cc3cccc(NC(=O)/C=C/CN(C)C)c3)c2n1 [Compound 143, (E)-N-(3-((6-(2,6-dichloro-3,5-dimethoxyphenyl)-2-(methylamino)-7-oxopyrido[2,3-d]pyrimidin-8(7H)-yl)methyl)phenyl)-4-(dimethylamino)but-2-enamide]",0.8,8,0.9,,,,,
"COc1cc(OC)c(Br)c(N2Cc3cnc(NC(C)C)nc3N(C3CCN(C(=O)/C=C/C[N+](C)(C)Cc4c([N+](=O)[O-])ncn4C)CC3)C2=O)c1Br.[Br-] [Compound 207, (E)-4-(4-(3-(2,6-dibromo-3,5-dimethoxyphenyl)-7-(isopropylamino)-2-oxo-3,4-dihydropyrimido[4,5-d]pyrimidin-1(2H)-yl)piperidin-1-yl)-N,N-dimethyl-N-((1-methyl-4-nitro-1H-imidazol-5-yl)methyl)-4-oxobut-2-en-1-aminium bromide]",,,,,53,8,404,
"COc1cc(Nc2ncc3cc(-c4c(Cl)c(OC)cc(OC)c4Cl)c(=O)n(C4CCN(C(=O)/C=C/CN(C)C)CC4)c3n2)ccc1F [Compound 141, (E)-6-(2,6-dichloro-3,5-dimethoxyphenyl)-8-(1-(4-(dimethylamino)but-2-enoyl)piperidin-4-yl)-2-((4-fluoro-3-methoxyphenyl)amino)pyrido[2,3-d]pyrimidin-7(8H)-one]",0.7,5.5,1.5,,,,,
"COc1cc(OC)c(Br)c(-c2cc3cnc(Nc4ccccc4)nc3n(C3CCN(C(=O)/C=C/C[N+](C)(C)Cc4c([N+](=O)[O-])ncn4C)CC3)c2=O)c1Br.[Br-] [Compound 212, (E)-4-(4-(6-(2,6-dibromo-3,5-dimethoxyphenyl)-7-oxo-2-(phenylamino)pyrido[2,3-d]pyrimidin-8(7H)-yl)piperidin-1-yl)-N,N-dimethyl-N-((1-methyl-4-nitro-1H-imidazol-5-yl)methyl)-4-oxobut-2-en-1-aminium bromide]",,,,,8,2,13,
"COc1ccc(Nc2ncc3c(n2)N(C2CCN(C(=O)/C=C/C[N+](C)(C)Cc4c([N+](=O)[O-])ncn4C)CC2)C(=O)N(c2c(Cl)c(OC)cc(OC)c2Cl)C3)cc1.[Br-] [Compound 206, (E)-4-(4-(3-(2,6-dichloro-3,5-dimethoxyphenyl)-7-((4-methoxyphenyl)amino)-2-oxo-3,4-dihydropyrimido[4,5-d]pyrimidin-1(2H)-yl)piperidin-1-yl)-N,N-dimethyl-N-((1-methyl-4-nitro-1H-imidazol-5-yl)methyl)-4-oxobut-2-en-1-aminium bromide]",,,,,8,1,8,
"COc1cccc(Nc2ncc3cc(-c4c(Cl)c(OC)cc(OC)c4Cl)c(=O)n(C4CCN(C(=O)/C=C/CN(C)C)CC4)c3n2)c1 [Compound 140, (E)-6-(2,6-dichloro-3,5-dimethoxyphenyl)-8-(1-(4-(dimethylamino)but-2-enoyl)piperidin-4-yl)-2-((3-methoxyphenyl)amino)pyrido[2,3-d]pyrimidin-7(8H)-one]",0.7,4.9,0.9,,,,,
"COc1cc(OC)c(Cl)c(-c2cc3cnc(NC4CCOCC4)nc3n(C3CCN(C(=O)/C=C/CN(C)C)CC3)c2=O)c1Cl [Compound 135, (E)-6-(2,6-dichloro-3,5-dimethoxyphenyl)-8-(1-(4-(dimethylamino)but-2-enoyl)piperidin-4-yl)-2-((tetrahydro-2H-pyran-4-yl)amino)pyrido[2,3-d]pyrimidin-7(8H)-one]",0.9,6.3,1.2,,,,,
"CCNc1ncc2cc(-c3c(Cl)c(OC)cc(OC)c3Cl)c(=O)n(Cc3cccc(NC(=O)/C=C/CN(C)C)c3)c2n1 [Compound 144, (E)-N-(3-((6-(2,6-dichloro-3,5-dimethoxyphenyl)-2-(ethylamino)-7-oxopyrido[2,3-d]pyrimidin-8(7H)-yl)methyl)phenyl)-4-(dimethylamino)but-2-enamide]",0.9,6.7,1.6,,,,,
"COc1cc(OC)c(Cl)c(-c2cc3cnc(Nc4ccc(F)cc4)nc3n(C3CCN(C(=O)/C=C/CN(C)C)CC3)c2=O)c1Cl [Compound 139, (E)-6-(2,6-dichloro-3,5-dimethoxyphenyl)-8-(1-(4-(dimethylamino)but-2-enoyl)piperidin-4-yl)-2-((4-fluorophenyl)amino)pyrido[2,3-d]pyrimidin-7(8H)-one]",0.3,6,1.1,,,,,
